Experimental data: PubChem BioAssay (NCI)
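Assay format: 96-well plates, 48-hour exposure. Definition used: TGI = concentration required for complete inhibition of growth.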

How the values were obtained:
Assay in all cases: NCI-60 cell line screen, 48 h
[1] = test system: 786-0 renal
[2] = test system: A498 renal
[3] = test system: A549 NSCLC
[4] = test system: ACHN renal
[5] = test system: BT-549 breast
[6] = test system: CAKI-1 renal
[7] = test system: CCRF-CEM leukemia
[8] = test system: COLO 205 colon
[9] = test system: DU-145 prostate
[10] = test system: EKVX NSCLC
[11] = test system: HCC-2998 colon
[12] = test system: HCT-116 colon
[13] = test system: HCT-15 colon
[14] = test system: HL-60(TB) leukemia
[15] = test system: HOP-62 NSCLC
[16] = test system: HOP-92 NSCLC
[17] = test system: HS 578T breast
[18] = test system: HT29 colon
[19] = test system: IGROV1 ovarian
[20] = test system: K-562 leukemia
[21] = test system: LOX IMVI melanoma
[22] = test system: M14 melanoma
[23] = test system: MALME-3M melanoma
[24] = test system: MCF7 breast
[25] = test system: MDA-MB-231 breast
[26] = test system: MDA-MB-435
[27] = test system: MDA-N
[28] = test system: NCI-H226 lung
[29] = test system: NCI-H23 lung
[30] = test system: NCI-H460 lung
[31] = test system: NCI-H522 lung
[32] = test system: NCI/ADR-RES ovarian
[33] = test system: OVCAR-3 ovarian
[34] = test system: OVCAR-4 ovarian
[35] = test system: OVCAR-5 ovarian
[36] = test system: OVCAR-8 ovarian
[37] = test system: PC-3 prostate
[38] = test system: RXF 393 renal
[39] = test system: SF-268 CNS
[40] = test system: SF-295 CNS
[41] = test system: SF-539 CNS
[42] = test system: SK-MEL-2 melanoma
[43] = test system: SK-MEL-28 melanoma
[44] = test system: SK-MEL-5 melanoma
[45] = test system: SK-OV-3 ovarian
[46] = test system: SN12C renal
[47] = test system: SNB-19 CNS
[48] = test system: SNB-75 CNS
[49] = test system: SW-620 colon
[50] = test system: TK-10 renal
[51] = test system: U251 CNS
[52] = test system: UACC-257 melanoma
[53] = test system: UACC-62 melanoma
[54] = test system: UO-31 renal

SMILES: Cc1ccc(-n2cc(-c3ccc(Cl)cc3)c3c(=N)n(N)cnc32)cc1
- TGI [1]: 24.4 µM
- TGI [2]: 29.5 µM
- TGI [3]: 29 µM
- TGI [4]: 29.7 µM
- TGI [5]: 31.7 µM
- TGI [6]: 34.3 µM
- TGI [7]: 51.4 µM
- TGI [8]: 20.7 µM
- TGI [9]: 34.5 µM
- TGI [10]: 29.9 µM
- TGI [11]: 19.2 µM
- TGI [12]: 20.3 µM
- TGI [13]: 28.9 µM
- TGI [14]: 31.7 µM
- TGI [15]: 27.4 µM
- TGI [16]: 21.6 µM
- TGI [17]: 17.5 µM
- TGI [18]: 20.6 µM
- TGI [19]: 24.5 µM
- TGI [20]: 47.6 µM
- TGI [21]: 29.8 µM
- TGI [22]: 17.2 µM
- TGI [23]: 26.1 µM
- TGI [24]: 23.2 µM
- TGI [25]: 25.3 µM
- TGI [26]: 23.1 µM
- TGI [27]: 23.8 µM
- TGI [28]: 38.2 µM
- TGI [29]: 30.3 µM
- TGI [30]: 22.2 µM
- TGI [31]: 28 µM
- TGI [32]: 26.8 µM
- TGI [33]: 26.5 µM
- TGI [34]: 22.5 µM
- TGI [35]: 27.9 µM
- TGI [36]: 29.9 µM
- TGI [37]: 19.4 µM
- TGI [38]: 15.7 µM
- TGI [39]: 25.7 µM
- TGI [40]: 28.8 µM
- TGI [41]: 27 µM
- TGI [42]: 26.8 µM
- TGI [43]: 26.7 µM
- TGI [44]: 20.1 µM
- TGI [45]: 31.5 µM
- TGI [46]: 29.9 µM
- TGI [47]: 24.4 µM
- TGI [48]: 25.9 µM
- TGI [49]: 25.1 µM
- TGI [50]: 28.7 µM
- TGI [51]: 22.3 µM
- TGI [52]: 21.5 µM
- TGI [53]: 26.4 µM
- TGI [54]: 24 µM
